From US11572590B2, “Methods for evaluating tumor cell spheroids using 3D microfluidic cell culture device” (Dana-Farber Cancer Institute, Inc., priority 2017, dated 2023)
Where two headings read alike, the source gives them in different places.

How the values were obtained:
Test in all cases: SelectScreen Kinase Profiling, single point inhibition and IC50 for off-target kinases
Format in all cases: biochemical
off-target kinases [1] = target: off-target kinases (Homo sapiens, UniProt P21802); conditions: FGFR2, ZLYTE, ATP Km app
Sequence of off-target kinases (Homo sapiens, UniProt P21802) (P21802 22-821): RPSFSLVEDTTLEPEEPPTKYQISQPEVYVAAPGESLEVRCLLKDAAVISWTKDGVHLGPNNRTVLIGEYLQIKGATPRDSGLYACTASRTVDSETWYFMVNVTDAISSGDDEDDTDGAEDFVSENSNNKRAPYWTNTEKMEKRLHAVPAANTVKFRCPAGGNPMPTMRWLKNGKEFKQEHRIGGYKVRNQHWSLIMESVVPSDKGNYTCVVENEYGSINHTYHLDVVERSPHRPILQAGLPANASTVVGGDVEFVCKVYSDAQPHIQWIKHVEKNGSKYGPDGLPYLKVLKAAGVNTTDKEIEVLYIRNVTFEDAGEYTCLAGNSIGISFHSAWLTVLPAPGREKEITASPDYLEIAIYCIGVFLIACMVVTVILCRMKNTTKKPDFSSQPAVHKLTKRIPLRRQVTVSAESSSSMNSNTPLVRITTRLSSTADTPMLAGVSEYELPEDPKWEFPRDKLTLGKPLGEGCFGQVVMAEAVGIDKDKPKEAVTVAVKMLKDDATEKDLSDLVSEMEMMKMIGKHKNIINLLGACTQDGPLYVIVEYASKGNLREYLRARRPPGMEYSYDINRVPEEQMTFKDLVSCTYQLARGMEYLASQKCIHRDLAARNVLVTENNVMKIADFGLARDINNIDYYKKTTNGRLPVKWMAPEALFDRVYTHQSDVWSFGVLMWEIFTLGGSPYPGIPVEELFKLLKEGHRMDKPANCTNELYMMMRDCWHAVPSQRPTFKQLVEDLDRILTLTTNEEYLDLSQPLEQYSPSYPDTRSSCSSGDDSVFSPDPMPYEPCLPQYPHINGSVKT

off-target kinases [2] = target: T1, off-target kinases (Homo sapiens, UniProt Q99683); conditions: MAP3K5 (ASK1), LanthaScreen Binding
T1 sequence (Q99683 1-1374): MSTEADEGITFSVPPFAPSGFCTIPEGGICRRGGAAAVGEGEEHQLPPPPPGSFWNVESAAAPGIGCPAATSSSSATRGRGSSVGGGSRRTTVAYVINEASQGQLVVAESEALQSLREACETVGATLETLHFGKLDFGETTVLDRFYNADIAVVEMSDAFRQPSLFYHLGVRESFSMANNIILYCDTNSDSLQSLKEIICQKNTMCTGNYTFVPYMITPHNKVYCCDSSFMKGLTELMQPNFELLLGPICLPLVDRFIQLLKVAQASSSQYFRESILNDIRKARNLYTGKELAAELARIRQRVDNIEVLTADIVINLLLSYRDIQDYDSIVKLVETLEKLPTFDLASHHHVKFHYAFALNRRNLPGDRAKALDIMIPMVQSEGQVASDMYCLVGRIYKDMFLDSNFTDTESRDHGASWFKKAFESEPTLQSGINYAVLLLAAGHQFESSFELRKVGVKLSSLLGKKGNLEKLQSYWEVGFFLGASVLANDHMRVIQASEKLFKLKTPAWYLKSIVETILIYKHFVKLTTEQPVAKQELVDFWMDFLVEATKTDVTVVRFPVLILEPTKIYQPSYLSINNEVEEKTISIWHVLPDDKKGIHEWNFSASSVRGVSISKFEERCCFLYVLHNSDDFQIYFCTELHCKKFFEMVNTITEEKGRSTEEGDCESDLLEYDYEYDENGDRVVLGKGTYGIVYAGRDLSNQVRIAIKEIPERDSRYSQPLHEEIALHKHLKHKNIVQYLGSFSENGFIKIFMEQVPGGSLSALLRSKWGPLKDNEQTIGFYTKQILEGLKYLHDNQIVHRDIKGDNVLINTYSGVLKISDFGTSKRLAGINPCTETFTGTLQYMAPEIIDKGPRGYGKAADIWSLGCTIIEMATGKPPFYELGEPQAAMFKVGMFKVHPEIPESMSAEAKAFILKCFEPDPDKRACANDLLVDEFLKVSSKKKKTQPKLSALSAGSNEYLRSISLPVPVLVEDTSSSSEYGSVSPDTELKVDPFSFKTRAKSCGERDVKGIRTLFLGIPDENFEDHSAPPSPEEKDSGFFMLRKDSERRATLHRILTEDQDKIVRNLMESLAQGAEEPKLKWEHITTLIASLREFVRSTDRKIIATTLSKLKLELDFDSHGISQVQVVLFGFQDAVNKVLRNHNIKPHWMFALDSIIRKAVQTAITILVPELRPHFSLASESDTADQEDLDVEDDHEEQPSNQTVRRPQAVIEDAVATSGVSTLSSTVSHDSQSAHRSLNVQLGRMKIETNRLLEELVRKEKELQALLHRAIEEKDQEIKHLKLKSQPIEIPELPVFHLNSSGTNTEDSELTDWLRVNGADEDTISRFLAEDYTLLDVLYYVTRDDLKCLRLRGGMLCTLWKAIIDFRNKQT

off-target kinases [3] = target: T2, off-target kinases (Homo sapiens, UniProt Q9UQB9); conditions: AURKC (Aurora C), ZLYTE, ATP Km app
T2 sequence (Q9UQB9 1-309): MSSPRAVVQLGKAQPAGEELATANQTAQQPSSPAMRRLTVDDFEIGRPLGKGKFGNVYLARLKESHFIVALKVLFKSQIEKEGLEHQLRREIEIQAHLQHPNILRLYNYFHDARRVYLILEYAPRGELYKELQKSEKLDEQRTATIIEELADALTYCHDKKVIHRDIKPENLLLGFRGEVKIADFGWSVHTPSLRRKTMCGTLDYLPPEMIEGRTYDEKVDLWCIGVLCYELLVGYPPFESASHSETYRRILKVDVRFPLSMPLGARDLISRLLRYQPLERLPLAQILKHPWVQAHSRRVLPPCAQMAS

`N#Cc1cc(-c2ncnc(Nc3ccc(N4CCN(C5COC5)CC4)cc3)n2)ccc1OC1CCOCC1` [Compound 1, 5-(4-((4-(4-(oxetan-3-yl)piperazin-1-yl)phenyl)amino)-1,3,5-triazin-2-yl)-2-((tetrahydro-2H-pyran-4-yl)oxy)benzonitrile] was tested, and the inhibition (off-target kinases [1]; read-out: % Inhibition 1) was 12%, the inhibition (off-target kinases [1]; read-out: % Inhibition 2) was 11% and the inhibition (off-target kinases [1]; read-out: % Inhibition Avg) was 12%. The inhibition (off-target kinases [2]; read-out: % Inhibition 1) was 7%, the inhibition (off-target kinases [2]; read-out: % Inhibition 2) was 8% and the inhibition (off-target kinases [2]; read-out: % Inhibition Avg) was 7%. It also gave an inhibition (off-target kinases [3]; read-out: % Inhibition 1) of 23%, an inhibition (off-target kinases [3]; read-out: % Inhibition 2) of 23% and an inhibition (off-target kinases [3]; read-out: % Inhibition Avg) of 23%.
